Assay results from PMC3462610 (Biochemical Journal, 2011).
Where no end group is shown, it is not given here.

Experiments:
[1] = target: activated His–JNK2–FLAG (Homo sapiens, UniProt P45984); assay: biochemical
[2] = system: endogenous JNK2; assay: Co-immunoprecipitation of endogenous WDR62 with JNK2, HEK-293T; format: binding, human; conditions: anti-WDR62 3G8
[3] = system: Endogenous MKK7; assay: Co-immunoprecipitation of endogenous WDR62 with MKK7, HEK-293T; format: binding, human; conditions: anti-WDR62 3G8
[4] = system: JNK1; assay: Co-immunoprecipitation of endogenous WDR62 with JNK1, HEK-293T; format: binding, human; conditions: authors attribute it to lower JNK1 expression level
[5] = system: JNK3; assay: GST pull-down with WDR62 1018-C–GST constructs; format: binding, human; conditions: HEK-293T
[6] = system: EGFP–JNK1; assay: Immunofluorescence, recruitment of EGFP–JNK1 to cellular granules in HeLa cells; format: cell-based, human; conditions: 24 h after transfection, confocal microscopy
[7] = system: MKK7α and MKK7β; conditions: cited from earlier work

Sequence of activated His–JNK2–FLAG (P45984 whole entry): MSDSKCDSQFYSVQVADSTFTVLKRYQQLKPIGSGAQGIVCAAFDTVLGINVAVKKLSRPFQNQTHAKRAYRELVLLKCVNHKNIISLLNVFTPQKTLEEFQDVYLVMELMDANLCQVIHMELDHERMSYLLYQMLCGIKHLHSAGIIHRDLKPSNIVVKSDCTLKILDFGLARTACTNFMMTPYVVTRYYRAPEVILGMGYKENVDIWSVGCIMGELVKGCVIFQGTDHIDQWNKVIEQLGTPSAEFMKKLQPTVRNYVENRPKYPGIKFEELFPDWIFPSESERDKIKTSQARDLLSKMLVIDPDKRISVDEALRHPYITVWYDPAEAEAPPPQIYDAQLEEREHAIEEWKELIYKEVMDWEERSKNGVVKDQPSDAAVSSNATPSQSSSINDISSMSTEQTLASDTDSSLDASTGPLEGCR

Molecule: GRKKRRQRRRPPNHEARANLRLTLSSACDGLL [WDR62 peptide]
- IC50 [1]: 5 µM

Molecule: WDR62: full-length WDR62 (endogenous, or Myc-tagged wild-type); JNK scaffold protein
- co-precipitation of endogenous JNK2 [2]: presence of endogenous JNK2
- co-precipitation of endogenous MKK7 [3]: also detected
- interaction with JNK1 [4]: lack of interaction
- association with JNK3 [5]: strongest association with the neuronal-enriched JNK3 isoform
- recruitment of EGFP–JNK1 to cellular granules [6]: efficiently recruited to these granules

B1: JIP1 scaffold protein: JIP1 (JNK-interacting protein 1) scaffold protein (protein, UniProt Q9UQF2 1-711, looked up)
C-Jun-amino-terminal …: MAERESGGLGGGAASPPAASPFLGLHIASPPNFRLTHDISLEEFEDEDLSEITDECGISLQCKDTLSLRPPRAGLLSAGGGGAGSRLQAEMLQMDLIDATGDTPGAEDDEEDDDEERAARRPGAGPPKAESGQEPASRGQGQSQGQSQGPGSGDTYRPKRPTTLNLFPQVPRSQDTLNNNSLGKKHSWQDRVSRSSSPLKTGEQTPPHEHICLSDELPPQSGPAPTTDRGTSTDSPCRRSTATQMAPPGGPPAAPPGGRGHSHRDRIHYQADVRLEATEEIYLTPVQRPPDAAEPTSAFLPPTESRMSVSSDPDPAAYPSTAGRPHPSISEEEEGFDCLSSPERAEPPGGGWRGSLGEPPPPPRASLSSDTSALSYDSVKYTLVVDEHAQLELVSLRPCFGDYSDESDSATVYDNCASVSSPYESAIGEEYEEAPRPQPPACLSEDSTPDEPDVHFSKKFLNVFMSGRSRSSSAESFGLFSCIINGEEQEQTHRAIFRFVPRHEDELELEVDDPLLVELQAEDYWYEAYNMRTGARGVFPAYYAIEVTKEPEHMAALAKNSDWVDQFRVKFLGSVQVPYHKGNDVLCAAMQKIATTRRLTVHFNPPSSCVLEISVRGVKIGVKADDSQEAKGNKCSHFFQLKNISFCGYHPKNNKYFGFITKHPADHRFACHVFVSEDSTKALAESVGRAFQQFYKQFVEYTCPTEDIYLE
- interaction with MKK7α and MKK7β [7]: interacts with both MKK7α and MKK7β
